In ChEMBL document CHEMBL1201862, “PubChem BioAssay data set” (2004):
Active and inactive are the calls of the source.

Experiments:
[1] = viability loss in HEK293 cells – cell-based, plate reader, cherry-picked samples, cytotoxicity control, dose response (AID 743446); assay type: functional
[2] = toxicity toward HepG2 liver cells – cell-based, plate reader, cherry-pick, antagonist series, cytotoxicity control, dose response (AID 743416); assay type: functional
[3] = biological target: T1, Microphthalmia-associated transcription factor (Homo sapiens, UniProt O75030); assay: reducers of TRPM1 reporter luminescence, concentration series – cell-based, SK-MEL-5, cherry-picked, set 3, MITF inhibitor project, dose response (AID 493073); assay type: functional;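 also: SK-MEL-5 melanoma cells with luciferase driven by the MITF target TRPM1 promoter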
T1 sequence (O75030 whole entry): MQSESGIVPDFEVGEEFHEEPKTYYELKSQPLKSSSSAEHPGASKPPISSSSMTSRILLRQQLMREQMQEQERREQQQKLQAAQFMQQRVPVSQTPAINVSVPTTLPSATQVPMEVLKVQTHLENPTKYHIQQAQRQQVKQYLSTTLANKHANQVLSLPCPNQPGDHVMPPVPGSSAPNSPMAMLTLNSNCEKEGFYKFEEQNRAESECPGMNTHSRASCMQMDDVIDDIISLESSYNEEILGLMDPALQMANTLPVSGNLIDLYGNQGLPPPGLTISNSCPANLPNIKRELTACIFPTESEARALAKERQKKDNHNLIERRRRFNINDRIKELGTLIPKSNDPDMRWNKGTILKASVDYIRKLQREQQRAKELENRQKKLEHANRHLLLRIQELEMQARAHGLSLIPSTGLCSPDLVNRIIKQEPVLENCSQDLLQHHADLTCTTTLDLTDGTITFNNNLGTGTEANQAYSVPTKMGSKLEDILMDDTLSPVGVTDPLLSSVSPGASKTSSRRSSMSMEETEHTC

[4] = blockers of bursicon-stimulated LGR2 cAMP reporter – cell-based, HEK293, CRE-luciferase reporter, cherry pick, set 2, dose response (AID 743343); assay type: functional;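 also: transfected cells were stimulated with diluted bursicon conditioned medium after compound addition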
[5] = luciferase reporter signal suppression in cells – H4 neuroglioma cells, luminescence, dose response (AID 1990); assay type: functional, cell-based
[6] = blockade of melanocortin 4 receptor signaling – cell-based, plate reader, cherry pick, counter-screen for LGR2 antagonist project, dose response (AID 743444); assay type: functional;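 also: transfected HEK 293 cells stimulated with alpha-MSH peptide; potency of inhibitors of the alpha-MSH evoked signal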
[7] = A549 cell cytotoxicity, dose response, cytotoxicity control, plate reader, cherry-pick, antagonist series (AID 743412); assay type: functional, cell-based
[8] = Luminescence Cell-Based Dose Response HTS to Identify Inhibitors of 5'UTR Stem-Loop Driven Prion Protein mRNA Translation in H4 Neuroglioblastoma Cells. [Related pubchem assays: 1827 (Project Summary), 1813 (Primary HTS)]; assay type: functional
[9] = alpha-synuclein stem-loop luciferase translation blockers – H4 neuroglioma cells, luminescence, confirmation (AID 1988); assay type: functional, cell-based
Prothrombin = Prothrombin (Homo sapiens, UniProt P00734); assay: Thrombin 1536 HTS Dose Response Confirmation. [Related pubchem assays: 1046 (Thrombin 1536 HTS; hits were confirmed in this assay)]; assay type: functional
[10] = biological target: T2, Long-chain-fatty-acid--AMP ligase FadD28 (Mycobacterium tuberculosis, UniProt P9WQ59); assay: Fluorescence polarization aasay to screen for inhibitors that compete for the binding of FadD28 to a bisubstrate Measured in Biochemical System Using Plate Reader - 2147-01_Inhibitor_Dose_CherryPick_Activity.; assay type: functional, Mycobacterium tuberculosis H37Rv
T2 sequence (P9WQ59 whole entry): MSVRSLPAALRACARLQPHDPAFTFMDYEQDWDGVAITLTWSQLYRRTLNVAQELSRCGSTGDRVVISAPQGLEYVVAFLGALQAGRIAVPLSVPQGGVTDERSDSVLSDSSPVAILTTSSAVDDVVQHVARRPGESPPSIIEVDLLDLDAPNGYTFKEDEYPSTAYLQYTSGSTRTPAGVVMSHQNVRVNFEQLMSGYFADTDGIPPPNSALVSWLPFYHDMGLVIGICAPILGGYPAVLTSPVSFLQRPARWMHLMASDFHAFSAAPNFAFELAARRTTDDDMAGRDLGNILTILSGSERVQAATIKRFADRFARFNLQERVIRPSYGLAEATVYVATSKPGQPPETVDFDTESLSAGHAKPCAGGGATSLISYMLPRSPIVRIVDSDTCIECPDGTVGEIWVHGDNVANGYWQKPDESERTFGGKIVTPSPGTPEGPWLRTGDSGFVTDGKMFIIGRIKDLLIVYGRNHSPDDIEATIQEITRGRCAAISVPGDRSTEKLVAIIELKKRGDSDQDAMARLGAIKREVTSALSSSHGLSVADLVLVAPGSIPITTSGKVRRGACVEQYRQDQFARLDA

[11] = IGROV1 cell killing – plate reader, dry powder samples, PAX8 inhibitor project, dose response (AID 743043); assay type: functional, cell-based; conditions: IGROV-1
Paired box protein Pax-8 = Paired box protein Pax-8 (Homo sapiens, UniProt Q06710); assay: PAX8 transcriptional activity inhibition in RMG-I – RMG-I cells, luciferase, cherry-pick, dose response (AID 687027); assay type: functional, cell-based;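 also: luciferase reporter driven by Pax8 target thyroperoxidase promoter measured by SteadyGlo luminescence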
[12] = OVCAR-3 cell viability loss – plate reader, dry powder samples, PAX8 inhibitor project, dose response (AID 743044); assay type: functional, cell-based
Ephrin type-A receptor 4 = Ephrin type-A receptor 4 (Mus musculus, UniProt Q03137); assay: EphA4 ligand-binding antagonists – biochemical, colorimetric, mouse EphA4, primary screen (AID 689); assay type: functional
cells [13] = assay type: functional, cell-based
[14] = biological target: T3, Trace amine-associated receptor 1 (Homo sapiens, UniProt Q96RJ0); assay: Fluorescence-based cell-based high throughput dose response assay to identify agonists of the human trace amine associated receptor 1 (TAAR1).; assay type: functional
T3 sequence (Q96RJ0 whole entry): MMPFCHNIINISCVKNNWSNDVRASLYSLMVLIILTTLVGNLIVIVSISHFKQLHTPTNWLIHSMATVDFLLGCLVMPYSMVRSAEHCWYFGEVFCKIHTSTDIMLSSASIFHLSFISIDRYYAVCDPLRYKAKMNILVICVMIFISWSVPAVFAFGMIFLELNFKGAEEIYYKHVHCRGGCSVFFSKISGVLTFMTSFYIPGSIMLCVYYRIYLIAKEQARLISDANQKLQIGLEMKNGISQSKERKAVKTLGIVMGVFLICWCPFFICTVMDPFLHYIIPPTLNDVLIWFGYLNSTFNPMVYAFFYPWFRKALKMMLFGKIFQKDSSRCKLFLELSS

cells [15] = assay type: functional, cell-based; remark: listed apart in the source
[16] = biological target: T3, Trace amine-associated receptor 1; assay: Counterscreen for agonists of the human trace amine associated receptor 1 (hTAAR1): Fluorescence-based cell-based high throughput dose response assay to identify hTAAR1 agonist that also desensitize TAAR1 receptor response.; assay type: functional
[17] = intracellular Trypanosoma cruzi inhibitors in host cells – cell-based, plate reader, cherry-pick samples, set 3, dose response (AID 651818); assay type: functional;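 also: compounds incubated with infected cells for about four days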
[18] = off-target signal loss in HeLa-CEM21 co-culture – HeLa F-luc CTL cells, cherry-picked, counter-screen for HIV-1 Env fusion inhibitor project, dose response (AID 652040); assay type: functional, cell-based;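 also: potency for signal decrease marking cytotoxic or nonspecific inhibition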
[19] = viability loss in CEM21 cells – cell-based, CellTiter-Glo luminescence, cherry-picked, cytotoxicity control for viral fusion inhibitor project, dose response (AID 652042); assay type: functional;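 also: potency for signal decrease meaning cytotoxicity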
[20] = HIV-1 AD8 envelope cell-cell fusion blockers – cherry-pick, dose response (AID 652062); assay type: functional, cell-based;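 also: luciferase signal from cell-cell fusion driven by HIV-1 clade B AD8 Env; potency is for inhibitors of fusion seen as a drop in luminescence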
[21] = biological target: T4, Voltage-gated N-type calcium channel alpha-1B subunit/Amyloid beta A4 precursor protein-binding family A member 1 (Homo sapiens, UniProt Q00975+Q02410); assay type: protein assay
[22] = biological target: T4, Voltage-gated N-type calcium channel alpha-1B subunit/Amyloid beta A4 precursor protein-binding family A member 1; assay type: protein assay; remark: listed apart in the source

T4 sequence (Q00975 whole entry): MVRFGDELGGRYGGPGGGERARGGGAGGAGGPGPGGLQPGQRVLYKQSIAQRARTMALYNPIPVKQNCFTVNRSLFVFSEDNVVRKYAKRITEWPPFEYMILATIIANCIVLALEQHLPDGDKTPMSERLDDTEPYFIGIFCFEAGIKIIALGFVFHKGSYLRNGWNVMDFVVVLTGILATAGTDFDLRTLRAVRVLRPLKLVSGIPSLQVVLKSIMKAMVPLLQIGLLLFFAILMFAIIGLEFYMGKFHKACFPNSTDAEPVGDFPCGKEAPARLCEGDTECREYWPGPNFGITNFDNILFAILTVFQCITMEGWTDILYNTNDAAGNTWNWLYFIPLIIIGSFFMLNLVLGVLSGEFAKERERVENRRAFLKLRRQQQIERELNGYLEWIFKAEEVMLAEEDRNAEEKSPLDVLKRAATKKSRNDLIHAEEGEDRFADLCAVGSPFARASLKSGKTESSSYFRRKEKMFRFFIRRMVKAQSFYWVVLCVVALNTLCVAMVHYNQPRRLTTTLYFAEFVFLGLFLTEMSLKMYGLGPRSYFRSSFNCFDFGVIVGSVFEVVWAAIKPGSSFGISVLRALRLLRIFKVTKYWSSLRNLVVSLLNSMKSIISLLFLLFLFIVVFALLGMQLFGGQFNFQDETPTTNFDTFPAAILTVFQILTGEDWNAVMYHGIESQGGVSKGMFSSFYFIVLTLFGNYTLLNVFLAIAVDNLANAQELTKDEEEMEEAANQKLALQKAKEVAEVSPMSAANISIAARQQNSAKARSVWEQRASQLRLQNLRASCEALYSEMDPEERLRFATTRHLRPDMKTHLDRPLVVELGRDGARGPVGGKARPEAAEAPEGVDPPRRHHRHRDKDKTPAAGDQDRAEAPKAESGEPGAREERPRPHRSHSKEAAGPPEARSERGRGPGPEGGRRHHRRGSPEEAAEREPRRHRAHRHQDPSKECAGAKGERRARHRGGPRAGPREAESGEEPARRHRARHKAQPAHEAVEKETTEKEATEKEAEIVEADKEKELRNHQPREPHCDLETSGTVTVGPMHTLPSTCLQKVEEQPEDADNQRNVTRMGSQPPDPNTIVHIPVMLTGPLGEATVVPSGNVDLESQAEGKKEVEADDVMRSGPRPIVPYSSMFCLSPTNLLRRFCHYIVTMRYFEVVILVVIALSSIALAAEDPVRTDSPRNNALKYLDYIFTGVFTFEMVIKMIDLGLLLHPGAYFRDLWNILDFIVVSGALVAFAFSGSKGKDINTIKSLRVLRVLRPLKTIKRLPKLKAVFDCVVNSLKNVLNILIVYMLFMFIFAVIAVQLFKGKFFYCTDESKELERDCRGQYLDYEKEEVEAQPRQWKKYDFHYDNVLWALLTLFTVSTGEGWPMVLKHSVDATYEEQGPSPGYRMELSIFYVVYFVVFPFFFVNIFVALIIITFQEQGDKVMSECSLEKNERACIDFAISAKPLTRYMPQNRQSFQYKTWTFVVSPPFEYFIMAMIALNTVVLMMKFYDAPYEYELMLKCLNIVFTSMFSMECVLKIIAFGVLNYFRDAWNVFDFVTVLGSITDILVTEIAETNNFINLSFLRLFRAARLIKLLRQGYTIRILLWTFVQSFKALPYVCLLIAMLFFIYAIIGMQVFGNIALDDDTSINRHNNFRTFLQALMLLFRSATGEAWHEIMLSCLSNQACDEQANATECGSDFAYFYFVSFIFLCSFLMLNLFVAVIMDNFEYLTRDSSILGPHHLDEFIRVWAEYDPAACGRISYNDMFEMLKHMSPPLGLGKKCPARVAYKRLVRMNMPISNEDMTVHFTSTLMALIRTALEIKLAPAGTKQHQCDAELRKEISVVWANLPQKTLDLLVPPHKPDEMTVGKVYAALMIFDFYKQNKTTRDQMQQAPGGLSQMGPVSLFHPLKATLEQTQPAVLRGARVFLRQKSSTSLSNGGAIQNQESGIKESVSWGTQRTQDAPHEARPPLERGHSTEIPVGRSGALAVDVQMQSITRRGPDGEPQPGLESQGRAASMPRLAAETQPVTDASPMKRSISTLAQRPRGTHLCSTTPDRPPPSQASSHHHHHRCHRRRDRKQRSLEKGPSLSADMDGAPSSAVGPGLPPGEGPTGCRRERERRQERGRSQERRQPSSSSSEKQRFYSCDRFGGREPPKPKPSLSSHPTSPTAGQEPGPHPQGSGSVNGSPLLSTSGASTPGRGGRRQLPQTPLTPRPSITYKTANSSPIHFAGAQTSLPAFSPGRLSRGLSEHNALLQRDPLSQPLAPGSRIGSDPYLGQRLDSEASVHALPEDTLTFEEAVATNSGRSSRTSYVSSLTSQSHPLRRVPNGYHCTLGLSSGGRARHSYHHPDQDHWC
T4 sequence (Q02410 whole entry): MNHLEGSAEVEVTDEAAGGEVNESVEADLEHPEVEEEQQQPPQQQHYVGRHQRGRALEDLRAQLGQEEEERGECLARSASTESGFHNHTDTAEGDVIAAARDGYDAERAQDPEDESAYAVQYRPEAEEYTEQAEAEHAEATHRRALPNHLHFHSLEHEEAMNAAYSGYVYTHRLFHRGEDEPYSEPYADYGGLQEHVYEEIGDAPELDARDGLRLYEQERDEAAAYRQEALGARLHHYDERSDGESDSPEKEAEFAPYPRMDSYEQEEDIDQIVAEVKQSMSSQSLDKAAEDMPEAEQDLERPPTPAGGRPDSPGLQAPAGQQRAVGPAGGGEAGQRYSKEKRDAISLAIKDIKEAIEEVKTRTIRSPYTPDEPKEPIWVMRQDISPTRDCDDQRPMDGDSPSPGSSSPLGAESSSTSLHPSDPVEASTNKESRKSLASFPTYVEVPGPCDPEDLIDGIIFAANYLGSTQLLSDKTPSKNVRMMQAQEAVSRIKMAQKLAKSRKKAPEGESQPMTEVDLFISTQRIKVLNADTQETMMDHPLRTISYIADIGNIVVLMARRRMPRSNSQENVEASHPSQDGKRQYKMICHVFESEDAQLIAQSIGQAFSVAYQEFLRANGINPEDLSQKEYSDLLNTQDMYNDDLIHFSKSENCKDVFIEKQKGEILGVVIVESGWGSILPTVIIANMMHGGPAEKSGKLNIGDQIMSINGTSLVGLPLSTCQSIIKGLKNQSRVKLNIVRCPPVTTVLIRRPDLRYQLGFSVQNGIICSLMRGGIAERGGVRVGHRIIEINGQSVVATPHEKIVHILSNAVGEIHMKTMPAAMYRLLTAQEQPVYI
Paired box protein Pax-8, sequence (Q06710 whole entry): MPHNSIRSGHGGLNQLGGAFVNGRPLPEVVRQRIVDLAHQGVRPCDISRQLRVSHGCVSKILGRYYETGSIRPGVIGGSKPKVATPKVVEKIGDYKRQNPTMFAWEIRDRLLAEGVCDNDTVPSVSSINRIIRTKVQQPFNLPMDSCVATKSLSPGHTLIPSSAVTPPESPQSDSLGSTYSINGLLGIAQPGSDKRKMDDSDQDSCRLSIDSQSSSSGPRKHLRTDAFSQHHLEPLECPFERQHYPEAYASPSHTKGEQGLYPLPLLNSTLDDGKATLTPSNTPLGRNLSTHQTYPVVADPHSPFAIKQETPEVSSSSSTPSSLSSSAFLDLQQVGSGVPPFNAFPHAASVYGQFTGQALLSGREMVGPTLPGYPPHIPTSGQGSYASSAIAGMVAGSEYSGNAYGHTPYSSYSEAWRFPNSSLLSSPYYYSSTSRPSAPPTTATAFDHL
Ephrin type-A receptor 4, sequence (Q03137 whole entry): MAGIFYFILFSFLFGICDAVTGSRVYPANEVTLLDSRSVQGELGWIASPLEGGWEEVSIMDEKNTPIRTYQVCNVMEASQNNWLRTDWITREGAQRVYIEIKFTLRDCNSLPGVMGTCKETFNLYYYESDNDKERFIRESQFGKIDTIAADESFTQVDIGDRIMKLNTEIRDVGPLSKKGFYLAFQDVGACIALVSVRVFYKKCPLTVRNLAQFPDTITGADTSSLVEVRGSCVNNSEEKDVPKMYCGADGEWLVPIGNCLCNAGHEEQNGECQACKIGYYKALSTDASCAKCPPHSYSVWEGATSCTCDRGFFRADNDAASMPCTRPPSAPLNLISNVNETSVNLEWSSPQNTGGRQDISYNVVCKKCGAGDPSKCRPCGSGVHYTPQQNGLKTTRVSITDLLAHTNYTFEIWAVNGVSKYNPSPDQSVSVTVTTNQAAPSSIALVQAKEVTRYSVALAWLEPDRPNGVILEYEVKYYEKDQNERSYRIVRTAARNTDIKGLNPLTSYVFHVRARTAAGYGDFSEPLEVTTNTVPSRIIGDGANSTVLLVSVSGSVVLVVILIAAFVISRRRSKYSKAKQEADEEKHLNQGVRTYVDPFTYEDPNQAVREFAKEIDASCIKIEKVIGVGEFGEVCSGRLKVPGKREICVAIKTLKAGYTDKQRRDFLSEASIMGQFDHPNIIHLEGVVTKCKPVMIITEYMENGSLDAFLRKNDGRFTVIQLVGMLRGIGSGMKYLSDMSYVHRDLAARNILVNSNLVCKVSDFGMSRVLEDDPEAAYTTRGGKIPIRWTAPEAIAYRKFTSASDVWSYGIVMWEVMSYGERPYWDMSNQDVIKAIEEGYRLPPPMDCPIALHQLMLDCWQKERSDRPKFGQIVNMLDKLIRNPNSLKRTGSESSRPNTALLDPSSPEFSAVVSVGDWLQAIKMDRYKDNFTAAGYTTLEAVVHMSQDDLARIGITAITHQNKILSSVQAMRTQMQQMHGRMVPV

SMILES: O=c1c2ccccc2cnn1CCOc1ccccc1
- AC50 [1]: 48.8 µM (active)
- AC50 [2]: > 52 µM (inactive)
- AC50 [3]: 7.2 µM (active)
- AC50 [4]: 2.52 µM (active)
- EC50 [5]: 4.07 µM (active)
- AC50 [6]: 2.62 µM (active)
- AC50 [7]: 45.5 µM (active)
- EC50 [8]: 392 nM (active)
- EC50 [9]: 1.97 µM (active)

SMILES: O=C(COC(=O)CCOc1ccccc1)Nc1ccc(Cl)cn1
- IC50 (Prothrombin): 30.8 µM (active)

SMILES: Cc1csc(NC(=O)CSc2nnc(NC(=O)NC(C)(C)C)s2)n1
- AC50 [10]: > 100 µM (inactive)

SMILES: O=C(C[C@H]1C[C@@H]2c3cc(NC(=O)Nc4ccc(C(F)(F)F)cc4)ccc3O[C@@H]2[C@@H](CO)O1)NCc1ccc(Cl)cc1
- AC50 [11]: 40.9 µM (active)
- AC50 (Paired box protein Pax-8): 7.85 µM (active)
- AC50 [12]: 61.1 µM (active)

SMILES: CC1=N/C(=C\c2ccc([N+](=O)[O-])cc2)C(=O)N1c1cc(Cl)ccc1C
- IC50 (Ephrin type-A receptor 4): 3.45 µM (active)

SMILES: Cc1ccc(SCC(=O)Nc2ccc(N3CCN(C)CC3)c(F)c2)c(C)c1
- EC50 (cells [13]): > 29.9 µM (inactive)
- EC50 [14]: 3.5 µM (active)
- IC50 (cells [15]): > 29.9 µM (inactive)
- IC50 [16]: 5.55 µM (active)

SMILES: C[C@H](NC(=O)c1ccccc1)C(=O)OCC(=O)c1c[nH]c2ccccc12
- EC50 (cells [13]): > 29.9 µM (inactive)
- EC50 [14]: 3.28 µM (active)
- IC50 (cells [15]): > 29.9 µM (inactive)
- IC50 [16]: 7.13 µM (active)

SMILES: Nc1nc(-c2ccccc2)nn1C(=O)Cc1ccccc1
- IC50 (Prothrombin): 1.51 µM (active)

SMILES: C[C@H](CO)N1C[C@H](C)[C@H](CN(C)Cc2ccc(C(F)(F)F)cc2)Oc2ccc(NC(=O)Nc3ccc(F)cc3)cc2C1=O
- AC50 [2]: 28 µM (active)
- AC50 [4]: 33.1 µM (active)
- AC50 [6]: 26.4 µM (active)
- AC50 [7]: 23.1 µM (active)
- AC50 [17]: 5.6 µM (active)

SMILES: COc1ccc(CC(=O)n2nc(-c3cccnc3)nc2N)cc1
- IC50 (Prothrombin): 0.259 µM (active)

SMILES: Cc1cc(C)c(CN2CCN(C(=O)Cn3ccc(NC(=O)OCc4ccccc4)nc3=O)CC2)c(C)c1
- AC50 [18]: > 70 µM (inactive)
- AC50 [19]: 26.8 µM (active)
- AC50 [20]: 4.37 µM (active)

SMILES: CCOc1ccc(C(=O)Nc2ccc(-c3nc4ccccc4[nH]3)cc2)cc1[N+](=O)[O-]
- IC50 [21]: > 50 µM (inactive)
- IC50 [22]: 12.2 µM (active)
